Results published in PubChem BioAssay AID1963971 (Molecular Pharmacology Branch, DTP, NCI, 2024).

Tested on: 953936-095-R-J2-PDC spheroids with HUVEC/MSC, viability
Assay: Anticancer human tumor 953936-095-R-J2-PDC patient-derived cervical squamous cell carcinoma cell line growth inhibition [PI3K]
Details: for IC50: curve of first compound; for viability, T/C: stronger effect = lower value
Source text: Combinatorial screen of targeted agents with the PI3K inhibitors inavolisib, alpelisib, duvelisib, and copanlisib in multi-cell type tumor spheroids
A high-throughput screen of multi-cell type tumor spheroids was designed to identify active combinations of targeted small molecules and PI3K pathway inhibitors. Complex spheroids include a stromal component modeled by human endothelial cells (HUVEC) and fibroblasts modeled by human mesenchymal stem cells (MSCs). The concentration ranges selected for each drug and investigational agent were based upon clinically achievable concentrations if the clinical Cmax of the agent was known.
Compounds. The drugs and investigational agents: inavolisib (NSC800729), alpelisib (NSC765974), duvelisib (NSC772469), copanlisib (NSC816437), ipatasertib (NSC767898), afuresertib (NSC778305), talazoparib (NSC767125), sapanisertib (NSC764658), selumetinib (NSC741078), tovorafenib (DAY101, NSC766906), vemurafenib (NSC761431), ravoxertinib (NSC781343), sotorasib (NSC818433), MRTX1133 (NSC 836407), abemaciclib (NSC 768073), palbociclib (NSC758247), venetoclax (NSC 766270), SY5609 (NSC837396), enzalutamide (NSC755605), and darolutamide (NSC825331), were obtained from the National Cancer Institute (NCI) Developmental Therapeutics Program Chemical Repository. The FDA-approved anticancer drug set is available from the NCI Developmental Therapeutics Program. […] The stock solutions were prepared in dimethyl sulfoxide (DMSO, Sigma-Aldrich, St. Louis, MO, cat. D2650) at 800-fold the tested concentration and stored at -70 degrees C prior to their use. All drugs and investigational agents were tested over a range starting from a high concentration at or near the clinical Cmax and decreasing in half-log increments. If the clinical Cmax for an agent had not been determined, the highest concentration tested was 10 microM.
Cell Culture. All cells were maintained in an incubator at 37 degrees C and 5% CO2 with 95% humidity. The PDC lines were cultured according to standard operating procedures established by the NCI PDMR (https://pdmr.cancer.gov/sops/default.htm). All PDCs were thawed and cultured in Matrigel-coated flasks prepared with a working solution of 1X Ham's F-12 nutrient mix, without supplementation (Invitrogen, Waltham, MA, cat. 11765054), 100 U/mL penicillin-streptomycin (Invitrogen, cat. 15140122), and 2.5% Matrigel (Corning Inc., Corning, NY, cat. 354248) for the first three passages. The 354836-022-R-J1-PDC, 475296-252-R-J1-PDC, and 997726-040-R-J2-PDC lines were cultured in 6A media, which includes advanced DMEM/F-12 (Thermo Fisher Scientific, cat. 12634028), 10 mM HEPES (Thermo Fisher Scientific, cat. 15630080), 1X GlutaMAX supplement (Thermo Fisher Scientific, cat. 35050061), 0.1 mg/mL primocin (InvivoGen, San Diego, CA, cat. ant-pm-2), 10% defined fetal bovine serum, heat inactivated (HyClone Laboratories Inc., Logan, UT, cat. SH30070.03HI), 50% L-WRN conditioned media (ATCC, cat. CRL-3276), 1.25 mM N-Acetyl-L-cysteine (Sigma-Aldrich, cat. A9165), 10 mM nicotinamide (Sigma-Aldrich, cat. N0636), 1X B-27 supplement (Thermo Fisher Scientific, cat. 17504044), 1X N-2 supplement (Thermo Fisher Scientific, cat. 17502048), and 10 microM Y-27632 dihydrochloride (Tocris Bioscience, Bristol, United Kingdom, cat. 1254). The 624824-186-R-J2-PDC line was cultured in 6C/Colon 1B media, which includes all 6A media components plus 50 ng/mL human EGF recombinant protein (Thermo Fisher Scientific, cat. PHG0311). […]

[1] = second compound 0.00316 µM, first compound 0.0316 µM
[2] = second compound 0.00316 µM, first compound 0.1 µM
[3] = second compound 0.01 µM, first compound 0.0316 µM
[4] = second compound 0.01 µM, first compound 0.1 µM
[5] = second compound 0.0316 µM, first compound 0.0316 µM
[6] = second compound 0.0316 µM, first compound 0.1 µM
[7] = second compound 0.1 µM, first compound 0.0316 µM
[8] = second compound 0.1 µM, first compound 0.1 µM
[9] = second compound 0.316 µM, first compound 0.0316 µM
[10] = second compound 0.316 µM, first compound 0.1 µM
[11] = second compound 1 µM, first compound 0.0316 µM
[12] = second compound 1 µM, first compound 0.1 µM
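Further: spheroids exposed to compounds for seven days before read-out.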

## CC(=O)c1c(C)c2cnc(Nc3ccc(N4CCNCC4)cn3)nc2n(C2CCCC2)c1=O + CC(Nc1ccc2c(c1)OCCn1cc(N3C(=O)OCC3C(F)F)nc1-2)C(N)=O
Second compound 0.00316 µM
  IC50: > 0.1 µM
Second compound 0.01 µM
  IC50: > 0.1 µM
Second compound 0.0316 µM
  IC50: > 0.1 µM
Second compound 0.1 µM
  IC50: > 0.1 µM
Second compound 0.316 µM
  IC50: < 0.000316 µM
Second compound 1 µM
  IC50: < 0.000316 µM
Second compound 0.00316 µM, first compound 0.000316 µM
  viability, T/C: 89.4%
Second compound 0.00316 µM, first compound 0.001 µM
  viability, T/C: 93.1%
Second compound 0.00316 µM, first compound 0.00316 µM
  viability, T/C: 98%
Second compound 0.00316 µM, first compound 0.01 µM
  viability, T/C: 99.6%
[1]
  viability, T/C: 93.5%
[2]
  viability, T/C: 93.3%
Second compound 0.01 µM, first compound 0.000316 µM
  viability, T/C: 94.9%
Second compound 0.01 µM, first compound 0.001 µM
  viability, T/C: 87.5%
Second compound 0.01 µM, first compound 0.00316 µM
  viability, T/C: 88.9%
Second compound 0.01 µM, first compound 0.01 µM
  viability, T/C: 93.8%
[3]
  viability, T/C: 85.7%
[4]
  viability, T/C: 92%
Second compound 0.0316 µM, first compound 0.000316 µM
  viability, T/C: 76.3%
Second compound 0.0316 µM, first compound 0.001 µM
  viability, T/C: 74.9%
Second compound 0.0316 µM, first compound 0.00316 µM
  viability, T/C: 74.8%
Second compound 0.0316 µM, first compound 0.01 µM
  viability, T/C: 76.5%
[5]
  viability, T/C: 79.1%
[6]
  viability, T/C: 68.4%
Second compound 0.1 µM, first compound 0.000316 µM
  viability, T/C: 66.9%
Second compound 0.1 µM, first compound 0.001 µM
  viability, T/C: 59.6%
Second compound 0.1 µM, first compound 0.00316 µM
  viability, T/C: 58.6%
Second compound 0.1 µM, first compound 0.01 µM
  viability, T/C: 54.5%
[7]
  viability, T/C: 55.6%
[8]
  viability, T/C: 54.5%
Second compound 0.316 µM, first compound 0.000316 µM
  viability, T/C: 35.2%
Second compound 0.316 µM, first compound 0.001 µM
  viability, T/C: 34.6%
Second compound 0.316 µM, first compound 0.00316 µM
  viability, T/C: 35.6%
Second compound 0.316 µM, first compound 0.01 µM
  viability, T/C: 37.7%
[9]
  viability, T/C: 33.6%
[10]
  viability, T/C: 35.3%
Second compound 1 µM, first compound 0.000316 µM
  viability, T/C: 25%
Second compound 1 µM, first compound 0.001 µM
  viability, T/C: 22.6%
Second compound 1 µM, first compound 0.00316 µM
  viability, T/C: 21.7%
Second compound 1 µM, first compound 0.01 µM
  viability, T/C: 22%
[11]
  viability, T/C: 25.5%
[12]
  viability, T/C: 22.9%

## CNC(=O)c1ccc(N2C(=S)N(c3ccc(C#N)c(C(F)(F)F)c3)C(=O)C2(C)C)cc1F + CC(Nc1ccc2c(c1)OCCn1cc(N3C(=O)OCC3C(F)F)nc1-2)C(N)=O
Second compound 0.00316 µM
  IC50: > 10 µM
Second compound 0.01 µM
  IC50: > 10 µM
Second compound 0.0316 µM
  IC50: > 10 µM
Second compound 0.1 µM
  IC50: 4.15 µM
Second compound 0.316 µM
  IC50: < 0.0316 µM
Second compound 1 µM
  IC50: < 0.0316 µM
[1]
  viability, T/C: 89.1%
[2]
  viability, T/C: 103%
Second compound 0.00316 µM, first compound 0.316 µM
  viability, T/C: 90.5%
Second compound 0.00316 µM, first compound 1 µM
  viability, T/C: 87.3%
Second compound 0.00316 µM, first compound 3.16 µM
  viability, T/C: 88.1%
Second compound 0.00316 µM, first compound 10 µM
  viability, T/C: 77.5%
[3]
  viability, T/C: 93.4%
[4]
  viability, T/C: 92.7%
Second compound 0.01 µM, first compound 0.316 µM
  viability, T/C: 90.3%
Second compound 0.01 µM, first compound 1 µM
  viability, T/C: 84.4%
Second compound 0.01 µM, first compound 3.16 µM
  viability, T/C: 90.5%
Second compound 0.01 µM, first compound 10 µM
  viability, T/C: 88.6%
[5]
  viability, T/C: 75.9%
[6]
  viability, T/C: 78.6%
Second compound 0.0316 µM, first compound 0.316 µM
  viability, T/C: 87%
Second compound 0.0316 µM, first compound 1 µM
  viability, T/C: 71%
Second compound 0.0316 µM, first compound 3.16 µM
  viability, T/C: 74.5%
Second compound 0.0316 µM, first compound 10 µM
  viability, T/C: 71.4%
[7]
  viability, T/C: 60.7%
[8]
  viability, T/C: 55.5%
Second compound 0.1 µM, first compound 0.316 µM
  viability, T/C: 57.2%
Second compound 0.1 µM, first compound 1 µM
  viability, T/C: 53.4%
Second compound 0.1 µM, first compound 3.16 µM
  viability, T/C: 50.5%
Second compound 0.1 µM, first compound 10 µM
  viability, T/C: 47.8%
[9]
  viability, T/C: 32.5%
[10]
  viability, T/C: 35.6%
Second compound 0.316 µM, first compound 0.316 µM
  viability, T/C: 35.1%
Second compound 0.316 µM, first compound 1 µM
  viability, T/C: 36.4%
Second compound 0.316 µM, first compound 3.16 µM
  viability, T/C: 33.3%
Second compound 0.316 µM, first compound 10 µM
  viability, T/C: 31.5%
[11]
  viability, T/C: 22.4%
[12]
  viability, T/C: 22.8%
Second compound 1 µM, first compound 0.316 µM
  viability, T/C: 21.5%
Second compound 1 µM, first compound 1 µM
  viability, T/C: 21.8%
Second compound 1 µM, first compound 3.16 µM
  viability, T/C: 24.1%
Second compound 1 µM, first compound 10 µM
  viability, T/C: 23%
